In paper PMC6588613, “Lupin (Lupinus spp.) seeds exert anthelmintic activity associated with their alkaloid content” (Scientific Reports, 2019):
Values after ≈ are worked out from the molar mass of the structure shown. Read-outs that look alike come from different tables or passages of the source. Values belong to the molecule of their own block, whether it stands above or below them.

What was measured:
[1] = target: C. elegans nicotine-sensitive AChR (Cel-N-AChR, acr-16) (Caenorhabditis elegans, UniProt P48180); experiment: Xenopus laevis oocyte two-electrode voltage-clamp, Cel-N-AChR; format: cell-based
Description: (§1) The lupanine and alkaloid extracts from lupin seeds were perfused on defolliculated X. laevis oocytes (Ecocyte Bioscience, Dortmund, Germany) expressing either the C. elegans nicotine-sensitive nAChR subtype (Cel-N-nAChR, encoded by acr-16[53]), or its levamisole-sensitive counterpart (Cel-L-nAChR, encoded by unc-38, unc-63, unc-29, lev-1 and lev-8[53]). In the lack of H. contortus nicotine-sensitive AChR described, the sole levamisole-sensitive nAChR subtype 1 (Hco-L-nAChR1, encoded by unc-29.1, unc-38, unc-63 and acr-8[29]) from H. contortus was also expressed. Expression of recombinant nAChRs was achieved by microinjection of cRNAs into the oocyte cytoplasm and two-electrode voltage-clamp recordings were carried out as previously described.
Acetylcholine was applied first to check for the presence of functional nAChRs and for current normalization in presence of lupanine or alkaloid extracts.
(§2) Dose-response data were modelled as a log-logistic regression with two parameters, i.e. the curve slope and the associated median excitatory (EC50) or inhibitory (IC50) concentration using the drc package v3.0-1[58]. To account for differences in maximal response values, a third parameter was added for electrophysiology data modelling.

[2] = test system: multidrug-resistant H. contortus infective larvae; experiment: Automated Larval Migration Assay (ALMA), multidrug-resistant isolate; format: cell-based, Haemonchus contortus; conditions: 250 µg/mL, ± s.d.
Procedure: (§3) Because of the scarcity of fractionated alkaloidic compounds (2.7 to 12.8 mg), their anthelmintic effect on infective H. contortus larvae was measured using ALMA. This technique relies on larval auto-fluorescence generated through ultraviolet excitation[42],[43]. Every alkaloidic compound was incubated for 4 h at 20 °C with 7,500 H. contortus infective larvae each. Larvae were then passed through a 20 μm sieve and left for a 60 s stabilization time before migration into the spectrofluorimeter cuvette. Cumulative fluorescence resulting from larval migration into the cuvette and correlating the total number of larvae[43] was recorded during 5 min. Each set of experiment was performed in triplicate at a concentration of 250 µg/mL but for compound 2 (150 µg/mL). Levamisole 10 µM was used as a positive control.

[3] = test system: drug-susceptible H. contortus infective larvae; experiment: Automated Larval Migration Assay (ALMA), drug-susceptible isolate; format: cell-based, Haemonchus contortus; conditions: for larval migration as percentage of control larval migration (ALMA): drug-susceptible larvae, 250 µg/mL (compound 2: 150 µg/mL), 4 h, ± s.d.
Description: Parasite material was maintained by the INRA animal parasite nematode collection. Two H. contortus isolates that were. susceptible or resistant to every licensed anthelmintic compound in France (benzimidazoles, levamisole, macrocyclic lactones) were used. […] To establish whether lupin effect was conserved across GIN species, a fully susceptible French T. circumcincta isolate[51] was used. […] For every test, infective larvae were exsheathed with 0.5% hypochlorite solution and rinsed thrice with water before subsequent incubation in 5 mg/mL solutions of either crude maceration, alkaloidic fraction or non-alkaloidic fraction, levamisole (10 µM) or water, for 18 h at 20 °C. At the end of the incubation period, 100 L3 were deposited on migration plates with 20 µm mesh at 38 °C for 2 h as described elsewhere. […] Dose-response assays were run with six control replicates and four replicates by concentration tested (0, 5, 7.5 and 10 mg/mL for E063 alkaloids and 0, 2, 4, 6 and 8 mg/mL for ENERGY alkaloids).
as §3

[4] = test system: mammalian nAChRs; conditions: cited from earlier work
[5] = test system: multidrug-resistant Haemonchus contortus infective larvae; experiment: Larval migration inhibition assay (LMIA), multidrug resistant isolate; format: cell-based; conditions: levamisole 10 µM
[6] = test system: fully susceptible French T. circumcincta isolate; experiment: microbe, parasite or virus in culture; conditions: Teladorsagia circumcincta, read-out: IC50 (ALMA)
[7] = test system: drug-susceptible Haemonchus contortus infective larvae; experiment: Larval migration inhibition assay (LMIA), fully susceptible isolate; format: cell-based
[8] = test system: susceptible Teladorsagia circumcincta infective larvae; experiment: Larval migration inhibition assay (LMIA), T. circumcincta; format: cell-based; conditions: lyophilized extracts 5 mg/mL, levamisole 10 µM, read-out: Average inhibitory effect (mean)
[9] = test system: multidrug resistant H. contortus isolate; format: in vivo, Haemonchus contortus; conditions: for in vivo Faecal Egg Reduction Test value: 14 days after treatment; for eggs/g 14 days after treatment: before treatment 11400 (levamisole), 1450 (ivermectin)
[10] = test system: multidrug resistant H. contortus isolate; experiment: In vitro drug susceptibility of the multidrug resistant isolate (assay not given); format: cell-based, Haemonchus contortus
[11] = test system: fully susceptible H. contortus isolate
[12] = target: H. contortus levamisole-sensitive AChR (Hco-L-AChR-1) (Haemonchus contortus, UniProt A9XX24+D6MYE9+D6MYF3+D6MYF4); experiment: Xenopus laevis oocyte two-electrode voltage-clamp, Hco-L-AChR-1; format: cell-based
Description: as §1, §2

[13] = test system: C. elegans levamisole-sensitive AChR (Cel-L-AChR); experiment: Xenopus laevis oocyte two-electrode voltage-clamp, Cel-L-AChR; format: cell-based, Caenorhabditis elegans
Description: as §1, §2

[14] = test system: susceptible control H. contortus; experiment: In vitro drug susceptibility of the susceptible control (assay not given); format: cell-based; conditions: Haemonchus contortus

Chain of C. elegans nicotine-sensitive AChR (Cel-N-AChR, acr-16) (P48180 20-498): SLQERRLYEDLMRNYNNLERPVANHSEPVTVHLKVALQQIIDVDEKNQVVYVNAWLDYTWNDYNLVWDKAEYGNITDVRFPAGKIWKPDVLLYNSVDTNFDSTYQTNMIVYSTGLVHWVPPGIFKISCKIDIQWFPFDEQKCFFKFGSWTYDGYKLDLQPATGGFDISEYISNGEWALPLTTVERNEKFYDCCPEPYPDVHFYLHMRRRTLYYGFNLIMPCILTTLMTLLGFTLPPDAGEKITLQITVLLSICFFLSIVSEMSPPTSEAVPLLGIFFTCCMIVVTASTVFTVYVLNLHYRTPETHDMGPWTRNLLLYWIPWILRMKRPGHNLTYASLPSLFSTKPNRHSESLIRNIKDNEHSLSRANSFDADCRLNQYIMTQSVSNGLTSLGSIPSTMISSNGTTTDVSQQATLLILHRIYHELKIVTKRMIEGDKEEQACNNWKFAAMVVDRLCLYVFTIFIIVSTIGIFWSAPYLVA
Chain of C. elegans levamisole-sensitive AChR (Cel-L-AChR) (Q27218 32-507): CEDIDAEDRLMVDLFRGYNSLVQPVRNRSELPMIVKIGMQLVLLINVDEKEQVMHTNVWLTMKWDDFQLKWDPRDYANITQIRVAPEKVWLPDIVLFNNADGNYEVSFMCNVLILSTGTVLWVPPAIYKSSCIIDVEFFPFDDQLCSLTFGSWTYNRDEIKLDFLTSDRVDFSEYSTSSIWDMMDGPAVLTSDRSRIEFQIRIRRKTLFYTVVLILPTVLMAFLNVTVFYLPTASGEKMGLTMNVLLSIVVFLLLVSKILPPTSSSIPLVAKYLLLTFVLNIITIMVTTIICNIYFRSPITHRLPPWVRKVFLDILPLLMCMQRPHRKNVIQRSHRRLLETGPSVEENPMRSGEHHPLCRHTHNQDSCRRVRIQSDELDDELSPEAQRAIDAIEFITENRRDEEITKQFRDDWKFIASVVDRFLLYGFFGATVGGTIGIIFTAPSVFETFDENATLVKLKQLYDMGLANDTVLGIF
Chain of C. elegans levamisole-sensitive AChR (Cel-L-AChR) (P48181 27-493, further chain): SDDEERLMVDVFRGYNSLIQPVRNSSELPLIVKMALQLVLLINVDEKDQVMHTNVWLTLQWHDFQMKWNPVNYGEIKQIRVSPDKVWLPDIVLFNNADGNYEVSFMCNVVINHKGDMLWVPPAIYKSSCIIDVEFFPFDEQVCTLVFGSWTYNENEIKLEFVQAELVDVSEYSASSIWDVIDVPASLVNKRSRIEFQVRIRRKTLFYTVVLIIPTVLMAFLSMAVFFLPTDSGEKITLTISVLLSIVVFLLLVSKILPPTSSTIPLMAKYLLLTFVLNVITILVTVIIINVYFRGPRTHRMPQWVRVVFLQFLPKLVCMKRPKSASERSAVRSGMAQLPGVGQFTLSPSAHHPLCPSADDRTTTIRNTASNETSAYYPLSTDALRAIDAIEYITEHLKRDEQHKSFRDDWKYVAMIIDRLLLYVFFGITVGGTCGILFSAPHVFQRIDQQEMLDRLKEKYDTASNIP
Chain of C. elegans levamisole-sensitive AChR (Cel-L-AChR) (Q23022 17-511, further chain): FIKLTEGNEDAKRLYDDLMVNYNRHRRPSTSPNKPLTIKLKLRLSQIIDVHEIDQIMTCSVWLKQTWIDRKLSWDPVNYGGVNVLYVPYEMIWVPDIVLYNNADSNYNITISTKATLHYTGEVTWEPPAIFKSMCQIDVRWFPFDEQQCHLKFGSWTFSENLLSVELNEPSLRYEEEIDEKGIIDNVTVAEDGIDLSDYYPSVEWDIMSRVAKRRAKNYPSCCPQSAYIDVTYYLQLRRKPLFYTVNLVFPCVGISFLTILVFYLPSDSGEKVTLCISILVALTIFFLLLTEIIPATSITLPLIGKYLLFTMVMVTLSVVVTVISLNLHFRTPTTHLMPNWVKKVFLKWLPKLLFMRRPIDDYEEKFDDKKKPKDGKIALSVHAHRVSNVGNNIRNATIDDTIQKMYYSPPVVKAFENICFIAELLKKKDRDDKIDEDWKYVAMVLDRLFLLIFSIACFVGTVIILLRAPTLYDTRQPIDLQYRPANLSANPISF
Chain of C. elegans levamisole-sensitive AChR (Cel-L-AChR) (Q9N587 24-502, further chain): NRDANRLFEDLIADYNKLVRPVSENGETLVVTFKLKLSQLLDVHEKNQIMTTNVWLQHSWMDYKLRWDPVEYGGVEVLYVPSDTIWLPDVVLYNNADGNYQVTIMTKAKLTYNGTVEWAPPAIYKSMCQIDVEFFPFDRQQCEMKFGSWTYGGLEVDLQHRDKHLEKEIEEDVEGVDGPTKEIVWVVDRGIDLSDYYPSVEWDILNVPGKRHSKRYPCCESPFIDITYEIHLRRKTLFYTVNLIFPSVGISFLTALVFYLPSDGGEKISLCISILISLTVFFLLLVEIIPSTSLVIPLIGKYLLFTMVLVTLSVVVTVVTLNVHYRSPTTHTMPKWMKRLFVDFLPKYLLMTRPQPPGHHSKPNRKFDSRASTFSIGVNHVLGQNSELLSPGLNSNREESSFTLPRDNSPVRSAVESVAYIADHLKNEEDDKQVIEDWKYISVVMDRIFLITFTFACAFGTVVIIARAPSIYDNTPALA
Chain of C. elegans levamisole-sensitive AChR (Cel-L-AChR) (Q93329 entry or part of it, further chain): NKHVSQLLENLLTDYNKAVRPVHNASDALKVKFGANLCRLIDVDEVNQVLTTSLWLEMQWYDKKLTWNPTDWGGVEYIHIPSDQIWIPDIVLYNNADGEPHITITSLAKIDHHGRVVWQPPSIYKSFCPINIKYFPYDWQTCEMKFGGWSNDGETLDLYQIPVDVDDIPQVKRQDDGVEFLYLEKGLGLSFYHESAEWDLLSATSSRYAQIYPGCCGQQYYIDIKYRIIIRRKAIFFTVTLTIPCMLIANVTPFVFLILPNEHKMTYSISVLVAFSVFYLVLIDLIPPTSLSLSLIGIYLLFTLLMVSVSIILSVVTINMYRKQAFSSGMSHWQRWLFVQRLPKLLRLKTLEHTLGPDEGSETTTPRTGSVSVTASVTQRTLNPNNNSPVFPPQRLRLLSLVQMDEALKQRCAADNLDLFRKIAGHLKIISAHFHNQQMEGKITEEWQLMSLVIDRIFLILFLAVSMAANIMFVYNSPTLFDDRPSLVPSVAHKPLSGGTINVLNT
Chain of H. contortus levamisole-sensitive AChR (Hco-L-AChR-1) (D6MYE9 entry or part of it): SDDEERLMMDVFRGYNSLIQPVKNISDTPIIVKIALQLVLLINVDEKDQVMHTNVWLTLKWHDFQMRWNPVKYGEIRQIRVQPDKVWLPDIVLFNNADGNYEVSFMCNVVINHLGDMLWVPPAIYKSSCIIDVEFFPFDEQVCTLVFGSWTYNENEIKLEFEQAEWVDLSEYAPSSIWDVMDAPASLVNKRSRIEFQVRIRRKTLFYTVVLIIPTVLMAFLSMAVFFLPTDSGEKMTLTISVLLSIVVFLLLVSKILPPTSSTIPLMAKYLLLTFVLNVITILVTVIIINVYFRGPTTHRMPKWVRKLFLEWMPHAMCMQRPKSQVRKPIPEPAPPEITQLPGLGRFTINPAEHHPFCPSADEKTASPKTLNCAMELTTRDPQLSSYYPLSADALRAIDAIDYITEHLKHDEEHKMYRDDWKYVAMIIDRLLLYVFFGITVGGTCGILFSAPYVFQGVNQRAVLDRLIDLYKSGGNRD
Chain of H. contortus levamisole-sensitive AChR (Hco-L-AChR-1) (D6MYF4 entry or part of it): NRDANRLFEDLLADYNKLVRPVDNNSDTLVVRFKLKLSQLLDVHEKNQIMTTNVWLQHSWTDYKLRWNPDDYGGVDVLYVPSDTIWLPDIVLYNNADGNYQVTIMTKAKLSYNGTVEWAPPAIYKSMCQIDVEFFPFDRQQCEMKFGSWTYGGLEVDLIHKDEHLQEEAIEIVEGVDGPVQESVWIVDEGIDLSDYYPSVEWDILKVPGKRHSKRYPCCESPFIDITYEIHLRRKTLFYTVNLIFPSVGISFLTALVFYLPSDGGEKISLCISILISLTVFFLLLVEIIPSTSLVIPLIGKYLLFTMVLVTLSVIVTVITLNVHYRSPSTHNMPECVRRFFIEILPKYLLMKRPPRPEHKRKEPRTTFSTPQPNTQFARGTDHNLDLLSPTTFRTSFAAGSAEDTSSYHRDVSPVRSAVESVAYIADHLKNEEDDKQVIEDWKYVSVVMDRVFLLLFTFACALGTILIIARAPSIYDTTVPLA
Chain of H. contortus levamisole-sensitive AChR (Hco-L-AChR-1) (A9XX24 entry or part of it): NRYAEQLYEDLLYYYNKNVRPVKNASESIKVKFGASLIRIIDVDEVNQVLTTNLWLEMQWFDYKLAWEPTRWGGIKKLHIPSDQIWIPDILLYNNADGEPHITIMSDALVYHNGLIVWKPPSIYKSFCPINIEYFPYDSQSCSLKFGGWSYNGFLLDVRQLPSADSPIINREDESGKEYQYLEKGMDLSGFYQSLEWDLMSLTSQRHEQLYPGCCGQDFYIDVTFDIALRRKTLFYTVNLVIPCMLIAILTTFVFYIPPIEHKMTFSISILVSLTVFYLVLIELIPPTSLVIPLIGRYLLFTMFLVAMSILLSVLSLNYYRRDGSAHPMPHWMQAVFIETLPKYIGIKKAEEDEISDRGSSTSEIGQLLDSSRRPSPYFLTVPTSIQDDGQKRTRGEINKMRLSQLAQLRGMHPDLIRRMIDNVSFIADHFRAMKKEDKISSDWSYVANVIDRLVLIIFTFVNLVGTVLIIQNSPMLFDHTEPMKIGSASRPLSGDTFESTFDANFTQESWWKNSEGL
Chain of H. contortus levamisole-sensitive AChR (Hco-L-AChR-1) (D6MYF3 entry or part of it): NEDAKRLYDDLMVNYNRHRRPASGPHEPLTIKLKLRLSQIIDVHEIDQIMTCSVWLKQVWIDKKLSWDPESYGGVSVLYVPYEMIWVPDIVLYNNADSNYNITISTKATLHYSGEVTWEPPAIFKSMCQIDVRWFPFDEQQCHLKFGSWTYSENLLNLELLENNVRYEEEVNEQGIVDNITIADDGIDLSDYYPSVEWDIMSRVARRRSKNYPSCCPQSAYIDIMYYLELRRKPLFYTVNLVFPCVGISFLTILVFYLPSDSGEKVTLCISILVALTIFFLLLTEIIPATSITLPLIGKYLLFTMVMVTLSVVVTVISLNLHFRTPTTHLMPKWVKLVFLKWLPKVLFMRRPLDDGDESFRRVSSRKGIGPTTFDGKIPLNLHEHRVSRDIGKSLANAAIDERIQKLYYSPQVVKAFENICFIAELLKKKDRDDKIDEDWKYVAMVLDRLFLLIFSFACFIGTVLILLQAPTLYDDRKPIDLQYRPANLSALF

Molecule: CC(=O)OCC[N+](C)(C)C [Acetylcholine, acetylcholine]
EC50 ([1]; EC50, acetylcholine alone): 21.7 ± 0.9 µM | EC50 ([1]; EC50 of acetylcholine with lupanine (300 µM), in the presence of 300 µM lupanine): 80.6 ± 27.5 µM

Molecule: CC=C(C)C(=O)OC1CCN2C[C@@H]3C[C@@H](CN4C(=O)CCC[C@H]34)[C@@H]2C1 (stereo partly shown) [Compound 1, 13-angeloyloxy or 13-tigloyloxy-lupanine]
larval migration as percentage of control (ALMA) [2]: 62.4% | larval migration as percentage of control larval migration (ALMA) [3]: 53.6%

Molecule: O[C@@]12C[C@@H](CN3CCCC[C@H]31)[C@H]1CCCCN1C2 [Compound 4, 7-hydroxysparteine]
larval migration as percentage of control larval migration (ALMA) [3]: 76%

Molecule: CC=C(C)C(=O)O[C@H]1CCN2C(=O)[C@@H]3C[C@@H](CN4C(=O)CCC[C@H]34)[C@@H]2C1 [Compound 5]
larval migration as percentage of control larval migration (ALMA) [3]: did not significantly inhibit

Molecule: O=C(OC1CCN2C[C@@H]3C[C@@H](CN4C(=O)CCC[C@H]34)[C@@H]2C1)c1ccccc1 (stereo partly shown) [Compound 6]
larval migration as percentage of control larval migration (ALMA) [3]: did not significantly inhibit

Molecule: O=c1cccc2n1C[C@@H]1CNC[C@H]2C1 [cytisine]
IC50 [4]: 0.14 µM

IC50 [6]: 1.79 µM | EC50 ([10]; Haemonchus contortus): 15.6 µM
Molecule: c1ccc([C@H]2CN3CCSC3=N2)cc1 [levamisole]
inhibition at 10 µM ([5]; Haemonchus contortus, H. contortus multidrug resistant, lyophilized extracts 5 mg/mL, read-out: Average inhibitory effect): 30.5% | Percentage of migrating larvae ([5]; multidrug-resistant isolate, fractions 2.5 mg/mL, fractions 1 and 8 0.625 mg/mL, negative control 100): 39.7% | inhibition at 10 µM ([7]; Haemonchus contortus, H. contortus drug susceptible, lyophilized extracts 5 mg/mL, levamisole 10 µM, read-out: Average inhibitory effect): 99.5% | IC50 ([7]; Haemonchus contortus, concentration response assay, susceptible H. contortus isolate): 1.61 µM | inhibition at 10 µM ([7]; Haemonchus contortus, susceptible H. contortus L3, levamisole 10 µM, extract 5 mg/mL, estimate ± s.e.m., read-out: mean inhibition of larval migration): 99.3% | Percentage of migrating larvae ([7]; fully susceptible isolate, fractions 2.5 mg/mL, fractions 1 and 8 0.625 mg/mL, levamisole 10 µM, negative control 100): 12.1% | inhibition at 10 µM [8]: 73.7% | in vivo Faecal Egg Reduction Test value [9]: 31.6% | eggs/g 14 days after treatment [9]: 7800 eggs/g | EC50 ([3]; Haemonchus contortus, fully susceptible isolate, read-out: in vitro EC50 (Automated Larval Migration inhibition Assay)): 1.1 µM | Faecal Egg Count reduction in vivo [11]: 100%

Molecule: O=C1CCC[C@@H]2[C@H]3C[C@@H](CN12)[C@@H]1CCCCN1C3 [lupanine]
IC50 ([12]; Hco-L-AChR-1, n = 5, read-out: IC50 on ACh-elicited currents): 540 ± 90.2 µM | inhibition at 300 µM ([12]; read-out: decrease in maximal ACh-elicited current): 38% | inhibition of the control migration ([7]; concentration response assay, 0 to 3 mM, susceptible isolate, linear, highly variable): less than 25% | decrease in maximal ACh-elicited current ([13]; 300 µM lupanine, levamisole-sensitive receptors): 38% | IC50 ([13]; read-out: IC50 on ACh-elicited currents, Cel-L-AChR, n = 5): 549 ± 64.1 µM | drop-off in the maximum amplitude of ACh-elicited currents ([1]; 300 µM lupanine): 81% | IC50 ([1]; n = 5, read-out: IC50 on ACh-elicited currents): 116 ± 9.7 µM | IC50 [4]: 5 µM

EC50 ([10]; Haemonchus contortus): 0.587 µg/mL | EC50 [14]: 0.022 µg/mL (≈ 0.0612 µM)
Molecule: CSc1nc2cc(Cl)c(Oc3cccc(Cl)c3Cl)cc2[nH]1 [triclabendazole]

Molecule: ivermectin
in vivo Faecal Egg Reduction Test value [9]: 67.8% | eggs/g 14 days after treatment [9]: 450 eggs/g | EC50 [10]: 0.055 µM
